Molecules are shown by their SMILES. Calls of active or inactive are those of the source. No cut-off for these calls is given here. Where only a bound is given, the exact number is not on record here.

Data set [1] in a line: Cytotoxicity against human HK-2 cells incubated for 72 hrs by MTT assay. In kind it is toxicity, cell-based. (In general: Tetrazolium dyes change colour on reduction, which living cells bring about.)
Data set [2] relates to HK-2. In words: Protection against cisplatin-induced nephrotoxicity in human HK-2 cells assessed as cell viability at 1 uM preincubated with compound for 2 hrs followed by cisplatin induction and measured after 72 hrs by MTT assay (reference value: 37.37 +/- 1.35%). Format: functional. As to conditions: time 74 hrs, read-out: Activity.
Data set [3] relates to HK-2. In words: Protection against cisplatin-induced nephrotoxicity in human HK-2 cells assessed as cell viability at 5 uM preincubated with compound for 2 hrs followed by cisplatin induction and measured after 72 hrs by MTT assay (reference value: 37.37 +/- 1.35%). In kind it is functional. As to conditions: time 74 hrs, read-out: Activity.
The test system of data set [4] is HK-2. In words: Protection against cisplatin-induced nephrotoxicity in human HK-2 cells assessed as cell viability at 10 uM preincubated with compound for 2 hrs followed by cisplatin induction and measured after 72 hrs by MTT assay (reference value: 37.37 +/- 1.35%). Format: functional. As to conditions: time 74 hrs, read-out: Activity.
Data set [5] relates to HK-2. In words: Protection against cisplatin-induced nephrotoxicity in human HK-2 cells at 5 to 10 uM preincubated with compound for 2 hrs followed by cisplatin induction and measured after 72 hrs by MTT assay. In kind it is functional, cell-based. The following applies: dose 5-10 µM, time 74.0 hrs.

A word on the IC50: it is the concentration that inhibits the measured activity by half. Low values mean greater potency, high ones weaker potency. Take `COc1c(CO)c2c(c(OC)c1C(=O)c1ccccc1)CC1C[C@@H]3[C@H](CC1(C)O2)C3(C)C` (some centres not stated): the IC50 at 72 h in data set [1] came to 6.42 µM.
In data set [1], `COc1c2c(c(C(=O)c3ccccc3)c(OC)c1C(=O)O)OC1(C)CCCC1C2` (configuration not stated) yielded an IC50 at 72 h above 10 µM. Also, in data set [2], the viability at 1 µM was found to be 37.2%. The viability at 5 µM in data set [3] is 35.2%. Besides, the viability at 10 µM in data set [4] was found to be 31.8%.
For the compound `CC12CCCC1Cc1c(O)c(C(=O)c3ccccc3)c(O)c(C=O)c1O2` (configuration not stated), in data set [1], the IC50 at 72 h was above 10 µM. Besides, the viability at 1 µM in data set [2] amounted to 37.2%. Also, the viability at 5 µM in data set [3] was determined as 38.2%. Besides, the viability at 10 µM in data set [4] was found to be 38.6%.
On the same counts, the results for `COc1c(C=O)c(OC)c(C(=O)c2ccccc2)c2c1CC1CCCCC1(C)O2` (configuration not stated) are above 10 µM, 35.3%, 34.4% and 30.1%.
The like results for `COc1c(CO)c(OC)c(C(=O)c2ccccc2)c2c1CC1CCCCC1(C)O2` (configuration not stated) were, in that order, above 10 µM, 38.8%, 44.3% and 44.6%.
On the same counts, the results for `COc1c2c(c(C(=O)O)c(OC)c1C(=O)c1ccccc1)OC1(C)CCCCC1C2` (configuration not stated) are above 10 µM, 38.2%, 30.7% and 28%.
With `COc1c(C=O)c2c(c(OC)c1C(=O)c1ccccc1)CC1C[C@@H]3[C@H](CC1(C)O2)C3(C)C` (some centres not stated), in data set [1], the IC50 at 72 h is above 10 µM. The viability at 1 µM in data set [2] is 30.1%. Besides, the viability at 5 µM in data set [3] worked out at 30.8%. For the same compound, the viability at 10 µM in data set [4] amounted to 35.5%.
The like results for `COc1c(CN2CCN(C)CC2)c(OC)c(C(=O)c2ccccc2)c2c1CC(C)C(C)(C)O2` (configuration not stated) were, in that order, above 10 µM, 37.2%, 39.2% and 38.9%.
The like results for `COc1c2c(c(CN3CCN(C)CC3)c(OC)c1C(=O)c1ccccc1)OC1(C)C[C@H]3[C@@H](CC1C2)C3(C)C` (some centres not stated) were, in that order, above 10 µM, 37.5%, 41.9% and 40.8%.
The like results for `CC1Cc2c(O)c(C=O)c(O)c(C(=O)c3ccccc3)c2OC1(C)C` (configuration not stated) were, in that order, above 10 µM, 39.9%, 43.6% and 47%.
For the compound `COc1c2c(c(C(=O)c3ccccc3)c(OC)c1C(=O)O)OC1(C)CCCCC1C2` (configuration not stated), the IC50 at 72 h in data set [1] is above 10 µM. In addition, in data set [2], the viability at 1 µM stood at 38.8%. In addition, in data set [3], the viability at 5 µM came to 35.9%. Also, the viability at 10 µM in data set [4] is 25.7%.
The like results for `COc1c2c(c(CN3CCN(C)CC3)c(OC)c1C(=O)c1ccccc1)OC1(C)CCCCC1C2` (configuration not stated) were, in that order, above 10 µM, 40.2%, 37.1% and 37%.
In the case of `COc1c(CO)c2c(c(OC)c1C(=O)c1ccccc1)CC(C)C(C)(C)O2` (configuration not stated), in data set [1], the IC50 at 72 h was above 10 µM. Further, the viability at 1 µM in data set [2] is 40.1%. Also, the viability at 5 µM in data set [3] came to 45.6%. For the same compound, in data set [4], the viability at 10 µM stood at 48.4%. Moreover, the result in data set [5] was Active.
As to `COc1c(CO)c2c(c(OC)c1C(=O)c1ccccc1)CC1CCCC1(C)O2` (configuration not stated), the IC50 at 72 h in data set [1] is above 10 µM. Further, in data set [2], the viability at 1 µM turned out to be 34.9%. Further, the viability at 5 µM in data set [3] was 37.5%. Moreover, the viability at 10 µM in data set [4] is 45.4%.
On the same counts, the results for `CC12CCCCC1Cc1c(O)c(C(=O)c3ccccc3)c(O)c(C=O)c1O2` (configuration not stated) are above 10 µM, 34.8%, 39.3% and 38%.
In data set [1], `CC1Cc2c(O)c(C(=O)c3ccccc3)c(O)c(C=O)c2OC1(C)C` (configuration not stated) gave an IC50 at 72 h above 10 µM. Also, the viability at 1 µM in data set [2] is 37.7%. Moreover, the viability at 5 µM in data set [3] came to 33.2%. In addition, the viability at 10 µM in data set [4] came out at 28.1%.
The like results for `CC12CCCCC1Cc1c(O)c(C=O)c(O)c(C(=O)c3ccccc3)c1O2` (configuration not stated) were, in that order, above 10 µM, 33.6%, 41.3% and 42.5%.
Consider `CC12C[C@H]3[C@@H](CC1Cc1c(O)c(C(=O)c4ccccc4)c(O)c(C=O)c1O2)C3(C)C` (some centres not stated), for which half-maximal inhibition in data set [1] (IC50 at 72 h) was put at 9.31 µM. In other words, the single-digit micromolar range.
`COc1c2c(c(C(=O)O)c(OC)c1C(=O)c1ccccc1)OC(C)(C)C(C)C2` (configuration not stated) returned an IC50 at 72 h in data set [1] above 10 µM. For the same compound, in data set [2], the viability at 1 µM stood at 37.8%. In addition, in data set [3], the viability at 5 µM worked out at 28.9%. Also, the viability at 10 µM in data set [4] worked out at 32%.
In turn, `CC12C[C@H]3[C@@H](CC1Cc1c(O)c(C=O)c(O)c(C(=O)c4ccccc4)c1O2)C3(C)C` (some centres not stated) gave an IC50 at 72 h in data set [1] of 7.81 µM.
As to `COc1c2c(c(C(=O)c3ccccc3)c(OC)c1C(=O)O)OC(C)(C)C(C)C2` (configuration not stated), the IC50 at 72 h in data set [1] was above 10 µM. In addition, in data set [2], the viability at 1 µM turned out to be 33.6%. In addition, the viability at 5 µM in data set [3] worked out at 30.4%. Further, in data set [4], the viability at 10 µM came out at 33.4%.
In the case of `COc1c(C=O)c(OC)c(C(=O)c2ccccc2)c2c1CC(C)C(C)(C)O2` (configuration not stated), the IC50 at 72 h in data set [1] is above 10 µM. For the same compound, the viability at 1 µM in data set [2] came out at 26.8%. Moreover, in data set [3], the viability at 5 µM is 30.4%. Further, in data set [4], the viability at 10 µM came out at 43.5%.
On the same counts, the results for `COc1c(CN2CCN(C)CC2)c(OC)c(C(=O)c2ccccc2)c2c1CC1CCCCC1(C)O2` (configuration not stated) are above 10 µM, 30.4%, 24.2% and 25.9%.
On the same counts, the results for `COc1c(C=O)c(OC)c(C(=O)c2ccccc2)c2c1CC1CCCC1(C)O2` (configuration not stated) are above 10 µM, 38.2%, 44.9% and 49.4%.
On the same counts, the results for `COc1c2c(c(C(=O)O)c(OC)c1C(=O)c1ccccc1)OC1(C)C[C@H]3[C@@H](CC1C2)C3(C)C` (some centres not stated) are above 10 µM, 31.5%, 21.6% and 25.4%.
In data set [1], `COc1c2c(c(C(=O)O)c(OC)c1C(=O)c1ccccc1)OC1(C)CCCC1C2` (configuration not stated) came in with an IC50 at 72 h above 10 µM. The viability at 1 µM in data set [2] is 32.3%. Besides, the viability at 5 µM in data set [3] is 29.6%. For the same compound, in data set [4], the viability at 10 µM was 32.6%.
The like results for `COc1c(CO)c(OC)c(C(=O)c2ccccc2)c2c1CC1C[C@@H]3[C@H](CC1(C)O2)C3(C)C` (some centres not stated) were, in that order, above 10 µM, 36%, 43.1% and 59.2%.
The like results for `COc1c(CO)c(OC)c(C(=O)c2ccccc2)c2c1CC(C)C(C)(C)O2` (configuration not stated) were, in that order, above 10 µM, 38.3%, 31.4% and 34.2%.
The like results for `COc1c(CO)c2c(c(OC)c1C(=O)c1ccccc1)CC1CCCCC1(C)O2` (configuration not stated) were, in that order, above 10 µM, 37.7%, 41.8% and 36.9%.
In data set [1], `COc1c2c(c(CN3CCN(C)CC3)c(OC)c1C(=O)c1ccccc1)OC(C)(C)C(C)C2` (configuration not stated) showed an IC50 at 72 h above 10 µM. Also, in data set [2], the viability at 1 µM amounted to 39.7%. Moreover, the viability at 5 µM in data set [3] stood at 33%. In addition, in data set [4], the viability at 10 µM was found to be 38.2%.
On the same counts, the results for `COc1c(C=O)c2c(c(OC)c1C(=O)c1ccccc1)CC1CCCC1(C)O2` (configuration not stated) are above 10 µM, 37.4%, 33.4% and 30.8%.
On the same counts, the results for `COc1c(CN2CCN(C)CC2)c(OC)c(C(=O)c2ccccc2)c2c1CC1CCCC1(C)O2` (configuration not stated) are above 10 µM, 38%, 37.5% and 43.7%.
On the same counts, the results for `COc1c(C=O)c2c(c(OC)c1C(=O)c1ccccc1)CC1CCCCC1(C)O2` (configuration not stated) are above 10 µM, 34.1%, 35.2% and 44.9%.
In data set [1], `COc1c2c(c(C(=O)c3ccccc3)c(OC)c1C(=O)O)OC1(C)C[C@H]3[C@@H](CC1C2)C3(C)C` (some centres not stated) registered an IC50 at 72 h above 10 µM. Moreover, in data set [2], the viability at 1 µM came to 30.2%. The viability at 10 µM in data set [4] is 40%.
As for `COc1c(C=O)c2c(c(OC)c1C(=O)c1ccccc1)CC(C)C(C)(C)O2` (configuration not stated), the IC50 at 72 h in data set [1] is above 10 µM. For the same compound, the viability at 1 µM in data set [2] came out at 37.5%. Besides, in data set [3], the viability at 5 µM worked out at 43.7%. The viability at 10 µM in data set [4] is 46.2%.
On the same counts, the results for `COc1c(CN2CCN(C)CC2)c(OC)c(C(=O)c2ccccc2)c2c1CC1C[C@@H]3[C@H](CC1(C)O2)C3(C)C` (some centres not stated) are above 10 µM, 39.9%, 40.1% and 18.5%.
The like results for `COc1c(CO)c(OC)c(C(=O)c2ccccc2)c2c1CC1CCCC1(C)O2` (configuration not stated) were, in that order, above 10 µM, 35%, 25.9% and 26.5%.
The like results for `COc1c2c(c(CN3CCN(C)CC3)c(OC)c1C(=O)c1ccccc1)OC1(C)CCCC1C2` (configuration not stated) were, in that order, above 10 µM, 36.4%, 39.4% and 38.3%.
Consider `COc1c(C=O)c(OC)c(C(=O)c2ccccc2)c2c1CC1C[C@@H]3[C@H](CC1(C)O2)C3(C)C` (some centres not stated), for which the IC50 at 72 h in data set [1] was above 10 µM. Also, in data set [2], the viability at 1 µM was 36.3%. Further, in data set [3], the viability at 5 µM came out at 39.8%. For the same compound, the viability at 10 µM in data set [4] amounted to 39%.

The values above are taken from ChEMBL document CHEMBL5550222, “Synthesis and Biological Evaluation of Novel Psidium Meroterpenoid Derivatives against Cisplatin-Induced Acute Kidney Injury” (J Med Chem, 2024).
